Assay results: patent EP1310250A1, “Use of the compound 2-methoxyphenyl-1-methyl-5P-methylbenzoyl-pyrrol-2-acetamido acetate for the production of an antiinflammatory drug with prevention of gastric hypersecretion and renal impairment” (MEDOSAN Ricerca S.r.l., priority 1997, dated 1999)

Tests used:
[1] = tested on: rat gastric mucosa; conditions: male, Wistar, in vivo, po, 4 days
Protocol: The animals entered in the trial, randomized and divided into groups of 6 rats each, were fasted for 16 h prior to treatment, with access to water ad libitum. They were re-fed 1 h after drug administration. The compound 2-methoxyphenyl-1-methyl-5p-methylbenzoyl-pyrrol-2-acetamido acetate and the other reference NSAIDs, suspended in 1% carboxymethylcellulose (CMC) solution, were orally administered by gastric gavage in a volume of 6ml/kg for four consecutive days. Controls received the vehicle in the same way as the treated animals. 4 h after the last administration the animals were killed by ether overdose; the stomachs were removed, rinsed with 10 ml of saline and immersed in 1% formalin. They were later opened along the greater curvature and the mucosa examined for lesions.
The seriousness of the lesion was quantified according to a scale graduated from 1 to 3 according to the size of the lesions: 1= ulcer < 1mm; 2= ulcer 1-2mm; 3= ulcer > 2mm. The total sum was divided by 10 to obtain the "erosion index". The gastric lesions were evaluated by two independent investigators under blind conditions according to Main & Whittle method (BJ Pharmac 1975:53; p. 217-224).
Since the average daily dose in man (for the anti-inflammatory activity) is 600 mg, the comparative efficacious dose in the rat is in the ratio of 12:1. More precisely, comparative evaluation with the other NSAID compounds was calculated as follows: 600 mg/die: 50 mg/kg = daily dose of reference NSAID in man: X [formula] where X represents the daily dose of the reference NSAID in rat. This criterion keeps into account the "real" activity ratio in man. In this work the "ratio to rat dosage" has also been included which keeps into account ratios homogeneous to the same animal species. To evaluate the "ratio to rat dosage" the ID50 has been determined using the carrageenin-induced oedema as inflammatory test.
In order to exacerbate possible side effects on the stomach the dosage of amtolmetin guacyl was quadruplicated.

[2] = tested on: Adjuvant arthritis; experiment: Adjuvant arthritis: joint inflammation and patellar bone erosion; assay type: in vivo, rats; conditions: patellar bone mass; MED 15 25, 50, 100mg/kg, piroxicam 3mg/kg
Protocol: The drugs were administered daily by oral gavage for 4 days (day 0-3); piroxicam and MED 15 were dissolved in 5% Gum arabic + 0.01% Tween 80, and administered in a volume of 0.5ml. Piroxicam was administered as 3mg/kg and MED 15 was administered as 25, 50 and 100mg/kg doses. Table 8 bis illustrating dosage regimes. L=left stifle joint, R=Right stifle joint.
Under halothane anaesthesia, rats received 200µg of heat-killed finely ground Mycobactyerium tubercolosis in 25µl (80mg/10ml sterile saline) injected intra-articulary into the left stifle joint. The contralateral joint received 25µl 0.9% sterile saline. Control animals received 25µl of 0.9% sterile saline in both knees. SGE 50µl microsyringes with a volume lock calibrated at 25µl were used with 30G stainless steel needles. Solutions were prepared sterile, and aseptic technique was used throughout, with sterilisation of syringes between groups.
The rats were killed by carbon dioxide suffocation. The body weight was noted and the skin overlying the stifle joints was divided and the joint diameters assessed in mm using Mitutoyo vernier callipers (530-312, 0.02mm).
The patellae were dissected, weighed (Sartorius, 0.01mg) and then immersed in 1ml digestion buffer (see below) to remove soft tissue.
Digestive buffer was prepared fresh to the following formula; disodium hydrogen orthophosphate 20mM, EDTA 1mM and diothiothreitol at 2mM. […]

[3] = tested on: fertility, embriotoxicity and teratogenicity; experiment: Fertility, embryotoxicity and teratogenicity studies, rabbit; assay type: in vivo
[4] = tested on: rat bone marrow; experiment: Micronucleus test; assay type: in vivo
[5] = tested on: adverse events; experiment: Clinical trials: tolerability, adverse events and suspensions of treatment; parameters: species or system man; conditions: in vivo
Description: Interest in the amtolmetin guacyl molecule arose following a thorough analysis of the results of 31 comparative and 6 non-comparative clinical trials involving 1596 patients. […] Turthermore the physician, being aware of administering an NSAID, was expecting adverse events and could not be expected to be an impartial observer. The few cases of gastro-intestinal phenomena reported with amtolmetin guacyl were transitory and in no event accompanied by the presence of occult blood in the stools. Moreover, even in the presence of a reported side-effect it was almost never necessary to suspend treatment (0.4% of suspensions).
Following are summarized the results obtained on a total of 1596 patients in 37 clinical trials.
Confirmation of the above described advantages is the very low incidence of treatment suspension for adverse events found in clinics (Table 17), which is not the case for most of NSAIDs known in the art (Table 18).

[6] = tested on: osteoarthritis; experiment: Clinical trials: antiphlogistic activity in osteoarthritis; assay type: in vivo, man; parameters: key to Antiphlogistic activity evaluation: excellent ^++++; good ^+++; poor ^++
Description: In this degenerative disease amtolmetin guacyl was compared with diclofenac, diflunisal, flurbiprofen, ibuprofen, ketoprofen, naproxen and tolmetin.

[7] = tested on: post-traumatic arthralgia; experiment: Clinical trials: analgesic properties in post-traumatic arthralgia; assay type: in vivo, man; conditions: Amtolmetin guacyl 600mgx2-daily, Diclofenac 50mgx2-daily, 15 patients each
Description: The same can be said in the treatment of post-traumatic arthralgia.

[8] = target: T1, COX1 (cyclooxygenase 1) (Rattus norvegicus, UniProt Q63921); experiment: Pharmacological studies in rats: COX1 inhibition; assay type: in vivo; conditions: studies conducted in rats
T1 construct: from tissue; host or cells: rat (in vivo pharmacological studies; tissue not given)

[9] = tested on: gastric lesions; experiment: Clinics with before/after endoscopies; assay type: in vivo, man; conditions: especially when administered on an empty stomach
[10] = tested on: gastric mucosa; experiment: Histological evaluation of the gastric mucosa by an independent laboratory; conditions: oral gavage: amtolmetin guacyl 50 mg/kg, diclofenac 7.5 mg/kg, tolmetin 66.6 mg/kg
Protocol: In order to obtain a histological evaluation of the results obtained in our laboratories, an independent laboratory was provided with identical samples of the material evaluated by us, under totally blind conditions.
Controls received the vehicle only, also by oral gavage. 4 h after the final administration the animals were killed by ether overdose and the stomachs removed, rinsed in saline and immersed in formalin 4%.

T1 sequence (Q63921 27-602): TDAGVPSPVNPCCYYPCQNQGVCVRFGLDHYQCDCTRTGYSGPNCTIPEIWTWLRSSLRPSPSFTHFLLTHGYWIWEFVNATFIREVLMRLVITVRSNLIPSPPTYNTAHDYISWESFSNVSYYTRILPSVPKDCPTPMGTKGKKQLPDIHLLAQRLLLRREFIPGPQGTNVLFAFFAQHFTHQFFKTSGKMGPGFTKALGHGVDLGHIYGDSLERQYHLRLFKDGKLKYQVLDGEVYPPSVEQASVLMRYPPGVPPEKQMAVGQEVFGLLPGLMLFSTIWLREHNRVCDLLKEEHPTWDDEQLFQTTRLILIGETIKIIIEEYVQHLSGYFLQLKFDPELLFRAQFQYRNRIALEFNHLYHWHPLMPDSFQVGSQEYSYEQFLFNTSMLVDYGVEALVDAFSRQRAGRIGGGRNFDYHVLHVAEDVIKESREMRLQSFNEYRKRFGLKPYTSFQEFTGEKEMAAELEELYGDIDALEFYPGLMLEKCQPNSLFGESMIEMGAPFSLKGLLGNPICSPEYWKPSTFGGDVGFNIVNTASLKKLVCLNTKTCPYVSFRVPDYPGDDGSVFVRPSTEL

COc1ccccc1OC(=O)CNC(=O)Cc1ccc(C(=O)c2ccc(C)cc2)n1C [amtolmetin guacyl, 2-methoxyphenyl-1-methyl-5p-methylbenzoylpyrrol-2-acetamido acetate]
Gastrolesive index [1]: 1.0 | protection against bone loss [2]: dose dependent protective effect | fertility, embriotoxicity and teratogenicity [3]: demonstrated the safety product | micronucleus test [4]: absence of amtolmetin guacyl-related damage | Treatment suspended % ([5]; human): 0,4% | suspensions of treatment ([5]; human): 0.4% | variations of the routine biological parameters [5]: no significant variations of the routine biological parameters were observed | Evaluation of antiphlogistic activity ([6]; 550 patients, mean 80 days, versus Diclofenac, Diflunisal, Flurbiprofen, Ibuprofen, Ketoprofen, Naproxen, Tolmetin): Amtolmetin guacyl was more rapid and more active in a statistically significant manner in osteoarthritis compared to the reference NSAIDs. | Antiphlogistic activity evaluation ([6]; Osteoarthritis): ^++++ | Duration [7]: 360 min | Latency [7]: 20 min | Max. time effect [7]: 60 min | inhibition of COX1 [8]: inhibition | induction of gastric lesions [9]: not to induce gastric lesions | Histology [10]: no histological lesions | Macroscopic findings ([10]; single animals): 0 | Microscopic findings ([10]; single animals): 0
